Source: US20220031695A1, “SHP2 INHIBITOR COMPOSITIONS FOR USE IN TREATING CANCER” (Revolution Medicines, Inc., priority 2018, published 2022)

What was measured:
SHP2 = molecular target: T1, SHP2 (Homo sapiens, UniProt Q06124); test: SHP2 allosteric inhibition assay (DiFMUP prompt fluorescence); type: biochemical; conditions: 0.2 nM SHP2, 0.5 μM activating peptide, DiFMUP substrate
T1 sequence (Q06124 1-593): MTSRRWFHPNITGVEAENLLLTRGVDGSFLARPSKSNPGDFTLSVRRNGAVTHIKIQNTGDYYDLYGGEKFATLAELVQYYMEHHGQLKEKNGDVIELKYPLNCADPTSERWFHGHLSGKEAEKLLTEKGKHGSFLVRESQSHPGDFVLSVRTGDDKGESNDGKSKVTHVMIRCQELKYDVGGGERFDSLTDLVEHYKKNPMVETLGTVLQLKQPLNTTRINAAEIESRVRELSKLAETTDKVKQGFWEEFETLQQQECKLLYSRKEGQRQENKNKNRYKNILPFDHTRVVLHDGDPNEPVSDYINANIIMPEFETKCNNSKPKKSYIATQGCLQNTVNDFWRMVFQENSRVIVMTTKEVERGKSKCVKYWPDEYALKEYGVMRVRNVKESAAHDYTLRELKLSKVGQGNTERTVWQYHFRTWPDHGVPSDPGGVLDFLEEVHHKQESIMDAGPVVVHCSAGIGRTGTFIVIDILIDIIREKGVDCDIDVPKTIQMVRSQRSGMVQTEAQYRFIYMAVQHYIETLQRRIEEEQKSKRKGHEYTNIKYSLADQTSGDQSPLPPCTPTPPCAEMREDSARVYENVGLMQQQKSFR
Description: Without wishing to be bound by theory, SHP is allosterically activated through binding of bis-tyrosyl-phosphorylated peptides to its Src Homology 2 (SH2) domains. The latter activation step leads to the release of the auto-inhibitory interface of SHP2, which in turn renders the SHP2 protein tyrosine phosphatase (PTP) active and available for substrate recognition and reaction catalysis. The catalytic activity of SHP2 was monitored using the surrogate substrate DiFMUP in a prompt fluorescence assay format.
The phosphatase reactions were performed at room temperature in 96-well black polystyrene plate, flat bottom, non-binding surface (Corning, Cat #3650) using a final reaction volume of 100 μL and the following assay buffer conditions: 50 mM HEPES, pH 7.2, 100 mM NaCl, 0.5 mM EDTA, 0.05% P-20, 1 mM DTT.
The inhibition of SHP2 by RMC-3943, RMC-4550, and Compound C was monitored using an assay in which 0.2 nM of SHP2 was incubated with 0.5 μM of Activating Peptide 1 (sequence: H2N-LN(pY)IDLDLV(dPEG8)LST(pY)ASINFQK-amide) (SEQ ID NO: 1) or Activating Peptide 2 (sequence: H2N-LN(pY)AQLWHA(dPEG8)LTI(pY)ATIRRF-amide) (SEQ ID NO: 2). After 30-60 minutes incubation at 25° C., the surrogate substrate DiFMUP (Invitrogen, Cat #D6567) was added to the reaction and activity was determined by a kinetic read using a microplate reader (Envision, Perkin-Elmer or Spectramax M5, Molecular Devices). […]

[1] = system: ROS1 fusion-positive NSCLC; conditions: patients harboring ROS1 fusion-positive NSCLC; cited from earlier work

Row | SMILES | IC50 (SHP2) | progression-free survival [1]
1 | Nc1nc(N2CCC3(CCC[C@H]3N)CC2)cnc1Sc1ccnc(Cl)c1Cl [RMC-3943] | 2.19 nM | 
2 | C[C@@H](Oc1cc(-c2cnn(C3CCNCC3)c2)cnc1N)c1c(Cl)ccc(F)c1Cl [crizotinib] |  | 19 month
